Test results reported in ChEMBL document CHEMBL1128836, “Synthesis of prodrugs and a mutual prodrug of chlorzoxazone and acetaminophen based on a masked benzoxazolone” (Bioorg Med Chem Lett, 1995).

Experiments:
[1] = Half life period in rat plasma at 37 degree Celsius temperature (pH 7.4); type: ADME, organism-based
Homo sapiens [2] = species: Homo sapiens; assay: Half life period in human plasma at 37 degree Celsius temperature (pH 7.4)
[3] = Half life period in phosphate buffer at pH 7.4; type: ADME; settings: for T1/2: buffer
Homo sapiens [4] = species: Homo sapiens; assay: Half life period in human plasma at 25 degree Celsius temperature (pH 7.4)
[5] = Half life period in rat plasma at 25 degree Centigrade temperature (pH 7.4); type: ADME, organism-based
[6] = Half life period in phosphate buffer at pH 7.4 & 25 degrees C; type: ADME

O=C(Nc1cc(Cl)ccc1O)OCC(Cl)Cl
half-life [1]: 53.8 min | half-life (Homo sapiens [2]): 105 min | half-life [3]: 42.4 min

CC(=O)Nc1cccc(OC(=O)Nc2cc(Cl)ccc2O)c1
half-life ([3]; phosphate buffer): 0.125 min

O=C(Nc1cc(Cl)ccc1O)Oc1cccc(C(F)(F)F)c1
T1/2 [3]: 3.1 s

CC#CCOC(=O)Nc1cc(Cl)ccc1O
half-life ([3]; phosphate buffer): 566 min

O=C(Nc1cc(Cl)ccc1O)Oc1cccc(Cl)c1
T1/2 [3]: 3.8 s

O=C(Nc1cc(Cl)ccc1O)OCC(Cl)(Cl)Cl
half-life [1]: 7.5 min | half-life (Homo sapiens [2]): 10.1 min | half-life [3]: 3.2 min

O=C(Nc1cc(Cl)ccc1O)Oc1ccccc1
half-life ([3]; phosphate buffer): 0.2 min

C#CCOC(=O)Nc1cc(Cl)ccc1O
half-life ([3]; phosphate buffer): 108 min

O=C(Nc1cc(Cl)ccc1O)OCCCl
half-life ([3]; phosphate buffer): 1310 min

CC(=O)Nc1ccc(OC(=O)Nc2cc(Cl)ccc2O)cc1
half-life (Homo sapiens [4]): 1.1 min | half-life [5]: 0.833 min | half-life [6]: 0.6 min | half-life ([3]; phosphate buffer): 0.118 min

O=C(Nc1cc(Cl)ccc1O)OCC(F)(F)F
half-life [3]: 2.58 min
